# Measurements: patent US10874743B2, “IRAK degraders and uses thereof” (Kymera Therapeutics, Inc., priority 2017, dated 2020)
# Experiments:
# [1] = target: T1, IRAK4 (Homo sapiens, UniProt Q9NWZ3); assay: OCI-LY-10 degradation assay (western blot, % IRAK4 degraded after 4 hours); format: cell-based; set-up: endogenous in cells; host or cells: OCI-LY10; details: OCI-LY10 cells, 4 hours; for OCI-LY10 % IRAK4 Degradation (0.01 uM): 0.01 uM compound; for OCI-LY10 % IRAK4 Degradation (0.1 uM): 0.1 uM compound; for OCI-LY10 % IRAK4 Degradation (1 uM): 1 uM compound
# T1 sequence (Q9NWZ3 1-460): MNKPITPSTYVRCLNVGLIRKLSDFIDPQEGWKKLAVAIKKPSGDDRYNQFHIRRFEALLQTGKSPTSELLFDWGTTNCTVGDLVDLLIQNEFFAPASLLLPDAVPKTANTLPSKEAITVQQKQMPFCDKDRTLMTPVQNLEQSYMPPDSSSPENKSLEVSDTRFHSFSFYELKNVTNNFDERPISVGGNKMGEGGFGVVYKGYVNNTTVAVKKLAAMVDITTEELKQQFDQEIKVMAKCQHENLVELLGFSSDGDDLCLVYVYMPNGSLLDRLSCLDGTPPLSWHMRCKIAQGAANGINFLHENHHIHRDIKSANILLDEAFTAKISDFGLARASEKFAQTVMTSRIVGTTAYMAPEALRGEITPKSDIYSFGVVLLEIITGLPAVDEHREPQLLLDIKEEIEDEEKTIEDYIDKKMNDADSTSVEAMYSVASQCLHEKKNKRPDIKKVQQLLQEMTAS
# Method in brief: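 IRAK4 loss after 4 h at 37° C was scored A (>50%), B (>20-50%) or C (<20%) from infrared western blots of RIPA lysates, 20-25 μg protein per lane. Compound was applied at 0.003-10 μM final to OCI-LY10 cells cultured in RPMI-1640 with 20% FBS and 55 μM 2-ME.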
# [2] = target: T1, IRAK4; assay: OCI-LY-10 MSD assay for IRAK4 DC50; format: cell-based; set-up: endogenous in cells; host or cells: OCI-LY10; details: OCI-LY10 cells, 4 hr incubation, concentration required to degrade 50% of protein
# Method in brief: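 IRAK4 level was quantified by MSD electrochemiluminescence (anti-IRAK4 capture antibody, rabbit anti-IRAK4 detection antibody) in RIPA lysates of OCI-Ly10 cells. Cells had been treated with compound for 4 hr (8-point, 3-fold serial dilution). Remaining protein versus concentration was fitted to a sigmoidal curve to give DC50.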
OCI-LY10 % IRAK4 Degradation (0.01 uM) [1],OCI-LY10 % IRAK4 Degradation (0.1 uM) [1],OCI-LY10 % IRAK4 Degradation (1 uM) [1],DC50 [2],SMILES
A (>50% degradation),A (>50% degradation),A (>50% degradation),< 50 nM,NC(=O)c1nn(-c2ccc(C(=O)NCC3CCCCN3CCOCCNc3cccc4c3C(=O)N(C3CCC(=O)NC3=O)C4=O)cc2)cc1NC(=O)c1coc(-c2ccnc(NCC(F)(F)F)c2)n1 (stereo not shown) [I-219]
B (>20-50% degradation),A (>50% degradation),A (>50% degradation),50 to 100 nM,O=C1CCC(N2Cc3cc(N4CCN(CCOCCOCCNCc5ccc(-n6cc(NC(=O)c7coc(-c8ccnc(NCC9CC9)c8)n7)c(C(F)F)n6)cc5)CC4)ccc3C2=O)C(=O)N1 (stereo not shown) [I-392]
B (>20-50% degradation),A (>50% degradation),A (>50% degradation),< 50 nM,Cn1c(=O)n(C2CCC(=O)NC2=O)c2ccc(CCCOCCOCCNC(=O)c3ccc(-n4cc(NC(=O)c5coc(-c6ccnc(NCC7CC7)c6)n5)c(C(F)F)n4)cc3)cc21 (stereo not shown) [I-252]
C (<20% degradation),B (>20-50% degradation),A (>50% degradation),100 to 500 nM,O=C1CCC(N2C(=O)c3cccc(NC4CCN(CCOCCOCCOCCNCc5ccc(-n6cc(NC(=O)c7coc(-c8ccnc(NCC9CC9)c8)n7)c(C(F)F)n6)cc5)CC4)c3C2=O)C(=O)N1 (stereo not shown) [I-386]
C (<20% degradation),A (>50% degradation),A (>50% degradation),100 to 500 nM,O=C1CCC(N2C(=O)c3ccc(N4CCN(CCOCCNCc5ccc(-n6cc(NC(=O)c7coc(-c8ccnc(NCC9CC9)c8)n7)c(C(F)F)n6)cc5)CC4)cc3C2=O)C(=O)N1 (stereo not shown) [I-393]
A (>50% degradation),A (>50% degradation),A (>50% degradation),< 50 nM,NC(=O)c1nn(-c2ccc(C(=O)NCCOCCOCCn3c(=O)n(C4CCC(=O)NC4=O)c4ccccc43)cc2)cc1NC(=O)c1coc(-c2ccnc(NCC(F)(F)F)c2)n1 (stereo not shown) [I-231]
A (>50% degradation),A (>50% degradation),A (>50% degradation),< 50 nM,O=C1CCC(N2C(=O)c3cccc(NC4CCN(CCOCCOCCNC(=O)c5ccc(-n6cc(NC(=O)c7coc(-c8ccnc(NCC(F)(F)F)c8)n7)c(C(F)F)n6)cc5)CC4)c3C2=O)C(=O)N1 (stereo not shown) [I-283]
C (<20% degradation),C (<20% degradation),B (>20-50% degradation),> 1000 nM,O=C1CCC(N2C(=O)c3ccc(CCCNCc4ccc(-n5cc(NC(=O)c6coc(-c7ccnc(NCC8CC8)c7)n6)c(C(F)F)n5)cc4)cc3C2=O)C(=O)N1 (stereo not shown) [I-371]
B (>20-50% degradation),A (>50% degradation),A (>50% degradation),< 50 nM,O=C1CCC(N2C(=O)c3ccc(CCCOCCNCc4ccc(-n5cc(NC(=O)c6coc(-c7ccnc(NCC8CC8)c7)n6)c(C(F)F)n5)cc4)cc3C2=O)C(=O)N1 (stereo not shown) [I-381]
C (<20% degradation),C (<20% degradation),C (<20% degradation),> 1000 nM,O=C1CCC(N2C(=O)c3cccc(CCCNC(=O)c4ccc(-n5cc(NC(=O)c6coc(-c7ccncc7)n6)c(C(F)F)n5)cc4)c3C2=O)C(=O)N1 (stereo not shown) [I-255]
C (<20% degradation),C (<20% degradation),C (<20% degradation),> 1000 nM,O=C1CCC(N2C(=O)c3cccc(CCCNCc4ccc(-n5cc(NC(=O)c6coc(-c7ccncc7)n6)c(C(F)F)n5)cc4)c3C2=O)C(=O)N1 (stereo not shown) [I-366]
C (<20% degradation),C (<20% degradation),C (<20% degradation),> 1000 nM,Cn1cc(NC(=O)c2coc(-c3ccnc(NCC(F)(F)F)c3)n2)c(C(=O)NCCCOCC(C)(C)COCCCc2cccc3c2n(C)c(=O)n3C2CCC(=O)NC2=O)n1 (stereo not shown) [I-297]
C (<20% degradation),A (>50% degradation),A (>50% degradation),100 to 500 nM,O=C1CCC(N2C(=O)c3ccc(N4CCN(CCOCCOCCOCCNCc5ccc(-n6cc(NC(=O)c7coc(-c8ccnc(NCC9CC9)c8)n7)c(C(F)F)n6)cc5)CC4)cc3C2=O)C(=O)N1 (stereo not shown) [I-394]
C (<20% degradation),A (>50% degradation),A (>50% degradation),50 to 100 nM,O=C1CCC(N2C(=O)c3cccc(NCCOCCN4CCO[C@H](CNC(=O)c5ccc(-n6cc(NC(=O)c7coc(-c8ccnc(NCC(F)(F)F)c8)n7)c(C(F)F)n6)cc5)C4)c3C2=O)C(=O)N1 (stereo partly shown) [I-281]
C (<20% degradation),A (>50% degradation),B (>20-50% degradation),50 to 100 nM,O=C1CCC(N2C(=O)c3cccc(NC4CCN(CCOCCOCCNC(=O)c5ccc(-n6cc(NC(=O)c7coc(-c8ccnc(NCC9CC9)c8)n7)c(C(F)F)n6)cc5)CC4)c3C2=O)C(=O)N1 (stereo not shown) [I-267]
C (<20% degradation),B (>20-50% degradation),B (>20-50% degradation),> 1000 nM,NC(=O)c1nn(-c2ccc(CNCCOCCOCCN3CCC(Nc4cccc5c4C(=O)N(C4CCC(=O)NC4=O)C5=O)CC3)cc2)cc1NC(=O)c1coc(-c2ccnc(NCC3CC3)c2)n1 (stereo not shown) [I-395]
C (<20% degradation),A (>50% degradation),A (>50% degradation),50 to 100 nM,O=C1CCC(N2C(=O)c3ccc(N4CCN(CCOCCNC(=O)c5ccc(-n6cc(NC(=O)c7coc(-c8ccnc(NCC9CC9)c8)n7)c(C(F)F)n6)cc5)CC4)cc3C2=O)C(=O)N1 (stereo not shown) [I-277]
B (>20-50% degradation),A (>50% degradation),A (>50% degradation),< 50 nM,O=C1CCC(N2C(=O)c3cccc(NCCNCCCCCNC(=O)c4ccc(-n5cc(NC(=O)c6coc(-c7ccnc(NC8CC8)c7)n6)c(C(F)F)n5)cc4)c3C2=O)C(=O)N1 (stereo not shown) [I-242]
C (<20% degradation),B (>20-50% degradation),A (>50% degradation),100 to 500 nM,O=C1CCC(N2C(=O)c3ccc(NC4CCN(CCOCCOCCOCCNC(=O)c5ccc(-n6cc(NC(=O)c7coc(-c8ccnc(NCC9CC9)c8)n7)c(C(F)F)n6)cc5)CC4)cc3C2=O)C(=O)N1 (stereo not shown) [I-272]
